Values of other authors as cited in patent US20250319024A1, “TARGETED NANOPARTICLES AND THEIR USES RELATED TO INFECTIOUS DISEASE” (priority 2021, published 2025).
Read-outs that look alike come from different tables or passages of the source.

Tested on: RIF sensitive strains / resistant strains
Conditions: cited from earlier work

## CO[C@H]1/C=C/O[C@@]2(C)Oc3c(C)c(O)c4c(O)c(c(/C=N/N5CCN(C)CC5)c(O)c4c3C2=O)NC(=O)/C(C)=C\C=C\[C@H](C)[C@H](O)[C@@H](C)[C@@H](O)[C@@H](C)[C@H](OC(C)=O)[C@@H]1C [free RIF, rifampin]
RIF sensitive strains
  ED95: below 0.5 μg/mL
Resistant strains
  ED95: above 2 μg/mL
